Experiments:
[1] = tested on: EpRas cells; assay: EF conversion of EpRas cells in collagen type I gels; format: cell-based, mouse
Method: (§1) Semiconfluent cultures of the cells to be analysed were trypsinised and adjusted to a final concentration of 4×10^4 cells per ml with ice-cold growth medium. Equal volumes of the cell suspension and an acidified solution of rat's tail collagen type 1 (Sigma) were mixed at 4° C., applied to 35 mm tissue culture dishes and incubated for 30 min at 37° C., in order to allow the solution to set to a gel. To allow the cells to form organotypical structures, the collagen gels were covered with a serum-free medium (MEGM; Promocel) containing bovine pituary extract (BPE), recombinant epidermal growth factor (EGF), hydrocortisone and insulin (in the concentrations recommended by the manufacturer). Where stated, 5 or 10% FCS or 5 ng/ml recombinant TGFβ1 (literature) were added. The medium covering the collagen gels was changed every two days. In order to neutralise the TGFβ1 produced by the cells or cell structures in the collagen gels a monoclonal antibody against TGFβ1 (Genzyme) or control antibody is used in concentrations of up to 50 μg/ml.
In order to identify the mechanism underlying the EF conversion, an experimental system was used with which EF conversion can be induced in vitro under defined and physiologically relevant conditions. For this purpose normal EpH4 cells or Ras-transformed subclones of these cells (Ep-Ras clones) were grown in reconstituted collagen type I gels, using serum-free medium. These conditions made it possible to add defined polypeptide growth factors and hormones which are known to be involved in the modulation of the epithelial phenotype. In gels of this kind, normal EpH4 cells developed into organ-like gland channels (tubuli) which frequently terminated in club-shaped hollow swellings. These structures looked very similar to the end buds of the developing mammary gland which are formed by primary breast epithelial cells both in collagen gels and also in vivo (FIG. 3A). These structures could be induced to produce milk proteins efficiently by the addition of lactogenic hormones. […]

[2] = tested on: EpH4 cells; assay: In vitro morphogenesis and apoptosis of normal EpH4 cells in collagen gels; format: cell-based, mouse
Method: as §1
Since the TGFβ-super-family of polypeptide factors is involved primarily in morphogenetic processes during embryo development, the role of TGFβ1 in normal mammary gland development was also examined within the scope of the present invention. For this purpose normal breast epithelial cells of the cell line EpH4 were sown in serum-free collagen gels. Unlike in the experiments in Example 3, the serum needed during sowing for the collagen gel to set and washed out one day later was specially selected for a low content of TGFβ1. […] Thus, these structures bore some resemblance to the end buds of the developing mammary gland.

[3] = tested on: EpRas cells; assay: Chicken embryo heart invasion assay with EpRas cells; format: cell-based, mouse; settings: 7 days co-cultivation with heart fragments
Method: This assay was carried out as described by Behrens et al., 1993. In order to be able to distinguish invasive donor cells clearly from chicken heart cells, the test cells were charged with a vital fluorescent dye before examination. For this the cells were incubated for 1 hour in a glucose-containing Hanks saline solution containing […] 5,6-carboxy-2′,7′-dichlorofluorescein diacetate-succinimidyl ester (Molecular Probes) and 0.2×10^−6 M Pluronic F127. In this way the fluorescent dye is covalently bound to intracellular proteins without affecting the viability or behaviour of the cells, determined by various differentiation and proliferation assays. The labelled cells were grown for 24 hours at high density, scraped off the plastic dish and brought into contact with pre-cultivated heart fragments of 9 day old chicken embryos on the surface of a soft agar layer. After 7 days' cultivation the fragments with the adhering cells were collected, flash-frozen in liquid nitrogen, frozen sections were prepared, fixed in methanol/acetone and the fluorescent cells were determined by epifluorescence microscopy (Axiophot, Zeiss).

[4] = tested on: EpRas cells; assay: TGFβ1-charged Slow Release Pellets coinjected with EpRas cells in mice; format: in vivo, mouse; settings: 4 days after subcutaneous injection
Method: (§2) In order to expose Ras-transformed breast epithelial cells to activated TGFβ1 very early in tumour development, TGFβ1 -charged Slow Release Elvax Pellets and either EpRas-epithelial cells or normal EpH4H cells were coinjected subcutaneously in mice. For control purposes pellets, charged only with BSA, were coinjected. The pellets were prepared and charged according to the manufacturer's instructions.
FIGS. 8E, F: Epithelial EpRas cells were injected subcutaneously into nude mice without (E) or together with 3-Elvax Slow Release Pellets charged with recombinant (active) TGFβ1 (F). Frozen sections obtained from 4 day old tumours were double-stained with antibodies against cytokeratin (red) and vimentin (green). What is noticeable is the dramatic migration of cells into the surrounding tissue induced in the vicinity of the TGFβ1 -releasing pellets (white circle).

[5] = tested on: EpH4 cells; assay: TGFβ1-charged Slow Release Pellets coinjected with EpH4 cells in mice; settings: mouse, in vivo
Method: as §2

[6] = tested on: PAI-1 promoter-reporter gene construct in CT26 cells; assay: Transient PAI-1 promoter-reporter gene (3TP-lux) luciferase assay; format: cell-based, mouse; settings: TGFβ added for 24 hours
Method: A PAI-1 promoter-reporter construct (reporter gene was luciferase; 3TP-lux, Wrana et al., 1992) was transfected by lipofectamine transfection (Gibco) according to the manufacturer's instructions into CT26 cells or CT26-TβRII-dn cells. 8 hours after transfection TGFβ1 was added for 24 hours, while the controls were left without TGFβ. Then cell lysates were prepared and the luciferase activity was measured in a Berthold Clinilumat as described by Wrana et al., 1992. In order to determine the transfection efficiency all the cells were cotransfected with an CMV-β-Gal reporter gene construct and the luciferase activities obtained were standardised by the β-Gal fluorescence intensity and by the protein concentration of the extract (Bradford).
CT26-control cells (CT26 controls) and 5 clones of CT26−TβRII-dn cells (CT26TβRII-dn 1-5) were transfected with a PAI-1 promoter-reporter gene construct (3TP-lux), the cells were stimulated with TGFβ (+TGFβ) or left unstimulated (−TGFβ) and the luciferase activity was measured in cell extracts. […]

[7] = tested on: EpRas cells; assay: Semi-quantitative PCR for TGFβ1-mRNA in cells grown in collagen gels; format: cell-based, mouse; settings: EpRas clones, 5 ng/ml TGFβ1, five days in collagen gels
Method: Total RNA from cells, grown on plastic, in collagen gels or from tumours, was isolated and processed for the semi-quantitative PCR. A TGFβ1-specific fragment was amplified by means of RT-PCR under semi-quantitative conditions, using -actin primers as the internal control, as described by Leonard et al., 1993. For this the DNA was denatured at 94° C. for 1 min, the primers were annealed at 65° C. for 1 min, and the polymerase reactions were continued at 72° C. for 1 min. The amplification was continued for 20 and 30 cycles. The TGFβ1-specific primers TGGACCGCAA CAACGCCATC TATCCAGAAAA CC (forward) and TGGAGCTGAAGCAATAGTTGGTATCCAGGGCT (reverse) (Clontech Inc.) were used. The results of the PCR were quantitatively evaluated on an Image Quant Phospho-Imager. The values were standardised on the control product (-actin) and subsequently correlated with the value from control-3T3-fibroblast.
Finally the amounts of TGFβ1-mRNA expressed in the cells and the TGFβ1 -protein released into the culture medium were determined. Three different EpRas clones as well as the parental EpH4 clone were grown for five days in collagen gels. […] At the protein level essentially the same results were obtained when serum-free culture supernatants were analysed by ELISA and Western blot (FIG. 7B).

Substance: TGFβ1: Transforming Growth Factor β1, recombinant polypeptide factor added to cells or charged in Slow Release Elvax Pellets
- apoptosis / EFC of Ha-Ras-containing cells ([1]; TGFβ1 5 ng/ml): not induced into apoptosis and undergo EFC without exception
- growth and phenotype of EpRas cells in collagen gel ([1]; TGFβ1 on its own, 5 ng/ml, serum-free collagen gel): causes EpRas cells to grow into invasive strings of cells similar to those induced by FCS
- effect among growth factors added to EpRas cells in collagen gels ([1]; compared with heregulin, scatter factor/HGF, acidic and basic FGF, PDGF): the only factor which showed striking and long-lasting effects on EpRas cells
- TGFβ1 concentration causing growth stop and apoptosis of normal epithelial cells ([2]; EpH4 cells in collagen gels): > 0.25 ng/mL
- structures formed by EpH4 cells after transient TGFβ1 ([2]; TGFβ1 0.1 ng/ml until structures had formed, then washed out): formed well-shaped tubular structures with typical lumina
- structures formed by EpH4 cells ([2]; TGFβ1 0.1 ng/ml, serum selected for low TGFβ1 content): able to proliferate and form atypical structures which generally lacked lumina
- induction of EF conversion in non-tumorigenic control cells ([2]; collagen gels): not able to induce EF conversion
- invasivity of EpRas cells converted by TGFβ1 treatment [3]: capable of migrating efficiently into the heart fragments
- phenotype and migration of EpRas cells close to a TGFβ1 pellet [4]: converted into irregularly shaped cells just 4 days after the injection and exhibited extensive migration into the surrounding host tissue
- phenotype of EpH4 cells close to TGFβ1 pellets [5]: could not noticeably influence the phenotype of these non-tumorigenic cells
- reporter gene transcription in CT26 control cells [6]: activates the reporter gene transcription to levels which are attained in the positive controls
- TGFβ1-mRNA produced by fibroblastoid cells induced by TGFβ1 [7]: produced quantities of TGFβ1-mRNA which were comparable with those of control fibroblasts

— patent US6383733B1, “Methods of screening for pharmacologically active compounds for the treatment of tumour diseases” (Boehringer Ingelheim International GmbH, priority 1996, dated 2002)
